Reference: the NIST ThermoML archive (doi:10.1021/je200856f)

Assay: mn = molality of the nth substance listed, in mol/kg
Details: 101 kPa, Liquid; for mass density: Vibrating tube method; for electrical conductivity: Wheatstone bridge equipment

C[N+](C)(C)CCO.[Cl-] [choline chloride] + O
Details	electrical conductivity [S/m]	mass density [kg/m3]	viscosity [mPa·s]
278.15 K, m1 = 0.0293	–	–	1.527
278.15 K, m1 = 0.054	–	1000.97	–
278.15 K, m1 = 0.058	–	–	1.551
278.15 K, m1 = 0.1087	–	1001.95	–
278.15 K, m1 = 0.1113	–	–	1.515
278.15 K, m1 = 0.2495	–	–	1.577
278.15 K, m1 = 0.2554	–	1004.5	–
278.15 K, m1 = 0.3505	–	–	1.601
278.15 K, m1 = 0.4956	–	–	1.631
278.15 K, m1 = 0.5004	–	1008.71	–
278.15 K, m1 = 0.6473	–	–	1.695
278.15 K, m1 = 0.6512	–	1011.01	–
278.15 K, m1 = 0.7484	–	1012.68	–
278.15 K, m1 = 0.7512	–	–	1.741
278.15 K, m1 = 0.903	–	–	1.762
278.15 K, m1 = 1.005	–	–	1.791
278.15 K, m1 = 1.203	–	1019.28	1.862
278.15 K, m1 = 1.504	–	1022.75	–
278.15 K, m1 = 1.506	–	–	1.936
278.15 K, m1 = 1.99	–	–	2.077
278.15 K, m1 = 1.992	–	1028.85	–
288.15 K, m1 = 0.0293	–	–	1.151
288.15 K, m1 = 0.054	–	1000.03	–
288.15 K, m1 = 0.058	–	–	1.17
288.15 K, m1 = 0.1087	–	1000.95	–
288.15 K, m1 = 0.1113	–	–	1.164
288.15 K, m1 = 0.2495	–	–	1.192
288.15 K, m1 = 0.2554	–	1003.33	–
288.15 K, m1 = 0.3505	–	–	1.211
288.15 K, m1 = 0.4956	–	–	1.237
288.15 K, m1 = 0.5004	–	1007.27	–
288.15 K, m1 = 0.6473	–	–	1.287
288.15 K, m1 = 0.6512	–	1009.43	–
288.15 K, m1 = 0.7484	–	1011	–
288.15 K, m1 = 0.7512	–	–	1.323
288.15 K, m1 = 0.903	–	–	1.342
288.15 K, m1 = 1.005	–	–	1.364
288.15 K, m1 = 1.203	–	1017.23	1.417
288.15 K, m1 = 1.504	–	1020.5	–
288.15 K, m1 = 1.506	–	–	1.476
288.15 K, m1 = 1.99	–	–	1.587
288.15 K, m1 = 1.992	–	1026.31	–
298.15 K, m1 = 0.0272	0.279	–	–
298.15 K, m1 = 0.0293	–	–	0.875
298.15 K, m1 = 0.05	0.492	–	–
298.15 K, m1 = 0.054	–	997.931	–
298.15 K, m1 = 0.058	–	–	0.888
298.15 K, m1 = 0.1	0.919	–	–
298.15 K, m1 = 0.1087	–	998.81	–
298.15 K, m1 = 0.1113	–	–	0.903
298.15 K, m1 = 0.2495	–	–	0.908
298.15 K, m1 = 0.25	2.03	–	–
298.15 K, m1 = 0.2554	–	1001.09	–
298.15 K, m1 = 0.35	2.67	–	–
298.15 K, m1 = 0.3505	–	–	0.928
298.15 K, m1 = 0.4956	–	–	0.95
298.15 K, m1 = 0.5	3.55	–	–
298.15 K, m1 = 0.5004	–	1004.84	–
298.15 K, m1 = 0.6473	–	–	0.984
298.15 K, m1 = 0.65	4.37	–	–
298.15 K, m1 = 0.6512	–	1006.92	–
298.15 K, m1 = 0.7484	–	1008.42	–
298.15 K, m1 = 0.75	4.79	–	–
298.15 K, m1 = 0.7512	–	–	1.009
298.15 K, m1 = 0.9	5.44	–	–
298.15 K, m1 = 0.903	–	–	1.023
298.15 K, m1 = 1.005	–	–	1.043
298.15 K, m1 = 1.203	–	1014.4	1.082
298.15 K, m1 = 1.205	6.54	–	–
298.15 K, m1 = 1.504	–	1017.56	–
298.15 K, m1 = 1.505	7.43	–	–
298.15 K, m1 = 1.506	–	–	1.127
298.15 K, m1 = 1.99	–	–	1.234
298.15 K, m1 = 1.992	–	1023.16	–
298.15 K, m1 = 1.994	8.53	–	–
308.15 K, m1 = 0.0293	–	–	0.715
308.15 K, m1 = 0.054	–	994.893	–
308.15 K, m1 = 0.058	–	–	0.724
308.15 K, m1 = 0.1087	–	995.745	–
308.15 K, m1 = 0.1113	–	–	0.732
308.15 K, m1 = 0.2495	–	–	0.746
308.15 K, m1 = 0.2554	–	997.961	–
308.15 K, m1 = 0.3505	–	–	0.757
308.15 K, m1 = 0.4956	–	–	0.774
308.15 K, m1 = 0.5004	–	1001.61	–
308.15 K, m1 = 0.6473	–	–	0.811
308.15 K, m1 = 0.6512	–	1003.63	–
308.15 K, m1 = 0.7484	–	1005.09	–
308.15 K, m1 = 0.7512	–	–	0.826
308.15 K, m1 = 0.903	–	–	0.835
308.15 K, m1 = 1.005	–	–	0.854
308.15 K, m1 = 1.203	–	1010.92	0.884
308.15 K, m1 = 1.504	–	1014	–
308.15 K, m1 = 1.506	–	–	0.921
308.15 K, m1 = 1.99	–	–	1.007
308.15 K, m1 = 1.992	–	1019.47	–
318.15 K, m1 = 0.0293	–	–	0.633
318.15 K, m1 = 0.054	–	991.063	–
318.15 K, m1 = 0.058	–	–	0.61
318.15 K, m1 = 0.1087	–	991.902	–
318.15 K, m1 = 0.1113	–	–	0.623
318.15 K, m1 = 0.2495	–	–	0.638
318.15 K, m1 = 0.2554	–	994.085	–
318.15 K, m1 = 0.3505	–	–	0.646
318.15 K, m1 = 0.4956	–	–	0.656
318.15 K, m1 = 0.5004	–	997.683	–
318.15 K, m1 = 0.6473	–	–	0.694
318.15 K, m1 = 0.6512	–	999.672	–
318.15 K, m1 = 0.7484	–	1001.11	–
318.15 K, m1 = 0.7512	–	–	0.69
318.15 K, m1 = 0.903	–	–	0.702
318.15 K, m1 = 1.005	–	–	0.721
318.15 K, m1 = 1.203	–	1006.86	0.747
318.15 K, m1 = 1.504	–	1009.9	–
318.15 K, m1 = 1.506	–	–	0.776
318.15 K, m1 = 1.99	–	–	0.843
318.15 K, m1 = 1.992	–	1015.31	–

O [water] + C[N+](C)(C)CCO.[Cl-]
Details	mass density [kg/m3]
278.15 K, m2 = 0	999.961
